Calls of active or inactive are those of the source. The rule behind the calls is not given here.
How the values were obtained:
[1] = Metabolic stability in mouse liver microsomes assessed as intrinsic clearance; format: ADME, Microsome; details: read-out: CLH
[2] = Metabolic stability in human liver microsomes assessed as intrinsic clearance; format: ADME, Microsome; details: read-out: CLH
[3] = target: Tryptophan 2,3-dioxygenase (Homo sapiens, UniProt P48775); experiment: Inhibition of TDO in HEK cells; format: cell-based
Tryptophan 2,3-dioxygenase, sequence (P48775 whole entry): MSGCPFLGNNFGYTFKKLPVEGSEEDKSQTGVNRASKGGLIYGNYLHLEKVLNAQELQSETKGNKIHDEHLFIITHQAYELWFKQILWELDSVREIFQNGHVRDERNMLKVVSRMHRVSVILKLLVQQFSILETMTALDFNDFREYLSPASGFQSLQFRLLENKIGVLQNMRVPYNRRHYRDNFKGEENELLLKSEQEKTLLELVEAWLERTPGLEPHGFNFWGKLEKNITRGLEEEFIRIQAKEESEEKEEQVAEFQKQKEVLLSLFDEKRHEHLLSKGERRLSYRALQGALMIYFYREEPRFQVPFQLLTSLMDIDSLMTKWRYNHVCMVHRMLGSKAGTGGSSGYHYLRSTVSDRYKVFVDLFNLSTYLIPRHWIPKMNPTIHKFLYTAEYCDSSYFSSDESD

[4] = target: T1, Indoleamine 2,3-dioxygenase 1 (Homo sapiens, UniProt P14902); experiment: Inhibition of IDO1 in human SKOV3 cells; format: cell-based, SK-OV-3
Target sequence in this assay (P14902 whole entry): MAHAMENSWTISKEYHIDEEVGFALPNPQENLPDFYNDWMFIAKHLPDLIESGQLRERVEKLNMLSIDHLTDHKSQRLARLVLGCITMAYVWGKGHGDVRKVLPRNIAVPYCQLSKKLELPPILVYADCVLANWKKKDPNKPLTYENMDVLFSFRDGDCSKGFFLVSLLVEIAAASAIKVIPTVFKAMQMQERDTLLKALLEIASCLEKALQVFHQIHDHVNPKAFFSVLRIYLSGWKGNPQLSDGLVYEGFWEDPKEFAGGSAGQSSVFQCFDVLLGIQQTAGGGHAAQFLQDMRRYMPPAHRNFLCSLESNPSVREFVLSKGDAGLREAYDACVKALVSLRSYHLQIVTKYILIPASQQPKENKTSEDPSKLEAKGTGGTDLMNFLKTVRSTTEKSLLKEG

[5] = target: Indoleamine 2,3-dioxygenase 1 (Mus musculus) (UniProt P28776); experiment: In vivo inhibition of IDO1 in mouse assessed as reduction in LPS-induced kynurenine level at 30 mg/kg, po administered as single dose measured after 36 hrs relative to control; format: functional, organism-based
Indoleamine 2,3-dioxygenase 1 (Mus musculus), sequence (P28776 whole entry, looked up): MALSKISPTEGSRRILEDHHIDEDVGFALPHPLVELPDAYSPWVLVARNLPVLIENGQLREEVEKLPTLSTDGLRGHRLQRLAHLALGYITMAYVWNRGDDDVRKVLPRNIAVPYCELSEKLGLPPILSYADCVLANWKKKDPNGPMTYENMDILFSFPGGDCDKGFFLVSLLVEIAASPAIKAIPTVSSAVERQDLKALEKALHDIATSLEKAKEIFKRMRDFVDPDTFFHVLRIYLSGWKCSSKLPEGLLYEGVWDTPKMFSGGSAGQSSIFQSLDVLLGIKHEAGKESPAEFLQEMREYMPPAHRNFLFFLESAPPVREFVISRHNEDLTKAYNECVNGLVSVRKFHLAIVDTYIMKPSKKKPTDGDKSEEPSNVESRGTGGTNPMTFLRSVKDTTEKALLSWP

[6] = target: Indoleamine 2,3-dioxygenase 1 (Mus musculus) (UniProt P28776); experiment: In vivo inhibition of IDO1 in mouse assessed as reduction in kynurenine level; format: functional
[7] = Metabolic stability in human hepatocytes assessed as intrinsic clearance measured per million cells; format: ADME, cell-based, Hepatocyte; details: read-out: CLH
[8] = Metabolic stability in human hepatocytes assessed as half life; format: ADME, cell-based, Hepatocyte
[9] = Metabolic stability in rat hepatocytes assessed as intrinsic clearance measured per million cells; format: ADME, cell-based, Hepatocyte; details: read-out: CLH
[10] = Metabolic stability in rat hepatocytes assessed as half life; format: ADME, cell-based, Hepatocyte
[11] = Metabolic stability in mouse hepatocytes assessed as intrinsic clearance measured per million cells; format: ADME, cell-based, Hepatocyte; details: read-out: CLH
[12] = Metabolic stability in mouse hepatocytes assessed as half life; format: ADME, cell-based, Hepatocyte
[13] = Half life in rat at 10 mg/kg, po; format: ADME, organism-based; details: in vivo
[14] = Half life in mouse at 10 mg/kg, po; format: ADME, organism-based; details: in vivo
[15] = AUC(0 to 72 hrs) in rat at 10 mg/kg, po; format: ADME, organism-based; parameters: time < 72 hr, route oral, dose 10 mg/kg; details: in vivo
[16] = Cmax in rat at 10 mg/kg, po; format: ADME, organism-based; parameters: route oral, dose 10 mg/kg; details: in vivo
[17] = AUC(0 to 72 hrs) in mouse at 10 mg/kg, po; format: ADME, organism-based; parameters: time < 72 hr, route oral, dose 10 mg/kg; details: in vivo
[18] = Cmax in mouse at 10 mg/kg, po; format: ADME, organism-based; parameters: route oral, dose 10 mg/kg; details: in vivo
[19] = target: T2, hERG (KCNH2) (Homo sapiens, UniProt Q12809); experiment: Inhibition of human ERG assessed as reduction in channel tail current at 10 uM by patch clamp assay relative to control
T2 sequence (Q12809 whole entry): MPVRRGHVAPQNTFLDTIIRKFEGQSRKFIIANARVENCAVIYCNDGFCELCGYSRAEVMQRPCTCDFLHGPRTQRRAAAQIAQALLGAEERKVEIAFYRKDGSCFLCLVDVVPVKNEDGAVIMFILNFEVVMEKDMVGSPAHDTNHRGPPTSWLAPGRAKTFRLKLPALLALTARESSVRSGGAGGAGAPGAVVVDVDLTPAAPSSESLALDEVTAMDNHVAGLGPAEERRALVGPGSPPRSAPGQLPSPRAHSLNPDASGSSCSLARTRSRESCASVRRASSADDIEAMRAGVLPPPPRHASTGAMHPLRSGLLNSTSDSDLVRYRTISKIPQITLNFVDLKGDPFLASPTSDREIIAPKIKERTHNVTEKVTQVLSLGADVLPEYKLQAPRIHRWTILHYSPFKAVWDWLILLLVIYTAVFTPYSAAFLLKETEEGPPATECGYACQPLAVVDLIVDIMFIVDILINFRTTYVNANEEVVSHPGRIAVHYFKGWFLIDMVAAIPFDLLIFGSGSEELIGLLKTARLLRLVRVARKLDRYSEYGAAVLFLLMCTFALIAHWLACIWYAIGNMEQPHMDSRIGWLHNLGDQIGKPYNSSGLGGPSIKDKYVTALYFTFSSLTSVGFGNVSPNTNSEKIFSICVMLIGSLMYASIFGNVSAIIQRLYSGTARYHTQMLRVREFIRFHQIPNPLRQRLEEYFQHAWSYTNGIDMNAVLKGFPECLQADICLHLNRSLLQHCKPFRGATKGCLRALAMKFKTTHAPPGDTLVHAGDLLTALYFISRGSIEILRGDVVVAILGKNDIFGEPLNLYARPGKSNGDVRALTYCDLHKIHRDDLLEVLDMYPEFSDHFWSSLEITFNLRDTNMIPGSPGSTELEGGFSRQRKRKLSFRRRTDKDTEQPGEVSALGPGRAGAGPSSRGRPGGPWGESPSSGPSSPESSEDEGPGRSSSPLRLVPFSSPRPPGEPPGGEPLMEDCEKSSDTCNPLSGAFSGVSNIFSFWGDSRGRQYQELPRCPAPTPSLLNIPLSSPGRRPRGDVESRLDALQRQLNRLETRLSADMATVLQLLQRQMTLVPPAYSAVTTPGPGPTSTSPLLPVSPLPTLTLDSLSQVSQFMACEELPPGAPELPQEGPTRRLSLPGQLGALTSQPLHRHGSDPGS

[20] = target: T2, hERG (KCNH2); experiment: Inhibition of human ERG at 10 uM relative to control
[21] = target: Cytochrome P450 3A4 (Homo sapiens, UniProt P08684); experiment: Inhibition of CYP3A4 (unknown origin); format: ADME
Cytochrome P450 3A4, sequence (P08684 whole entry): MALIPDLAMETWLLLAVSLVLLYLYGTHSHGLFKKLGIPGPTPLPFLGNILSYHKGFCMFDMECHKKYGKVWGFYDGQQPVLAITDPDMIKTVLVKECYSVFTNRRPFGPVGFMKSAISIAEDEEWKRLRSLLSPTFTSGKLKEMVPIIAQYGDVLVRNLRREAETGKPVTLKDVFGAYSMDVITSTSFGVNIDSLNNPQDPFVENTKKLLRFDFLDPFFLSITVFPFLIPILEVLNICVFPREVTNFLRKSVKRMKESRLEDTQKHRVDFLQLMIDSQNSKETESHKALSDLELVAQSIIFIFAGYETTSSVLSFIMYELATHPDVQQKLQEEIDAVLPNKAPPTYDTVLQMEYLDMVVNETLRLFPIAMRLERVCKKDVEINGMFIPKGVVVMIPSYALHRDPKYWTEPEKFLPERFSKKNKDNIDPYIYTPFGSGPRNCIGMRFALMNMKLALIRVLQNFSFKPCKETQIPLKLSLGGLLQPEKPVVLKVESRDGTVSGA

[22] = Plasma protein binding in mouse; format: ADME, cell-free; details: read-out: PPB (converted)
[23] = Plasma protein binding in human; format: ADME, cell-free; details: read-out: PPB
[24] = target: T1, Indoleamine 2,3-dioxygenase 1; experiment: Binding affinity to IDO1 (unknown origin) assessed as change in melting temperature at 5 uM by thermal shift assay
Target sequence in this assay (P14902 whole entry, looked up): as the sequence (P14902 whole entry) above

[25] = target: Indoleamine 2,3-dioxygenase 1 (Mus musculus, UniProt P28776); experiment: Inhibition of mouse IDO1 expressed in HEK cells; format: cell-based
Indoleamine 2,3-dioxygenase 1 (Mus musculus, UniProt P28776), sequence (P28776 whole entry): as the sequence (P28776 whole entry, looked up) above

[26] = target: T1, Indoleamine 2,3-dioxygenase 1; experiment: Inhibition of IDO1 in human whole blood; format: tissue-based
Target sequence in this assay (P14902 whole entry): as the sequence (P14902 whole entry) above

[27] = target: Cytochrome P450 2C9 (Homo sapiens, UniProt P11712); experiment: Inhibition of CYP2C9 (unknown origin); format: ADME
Cytochrome P450 2C9, sequence (P11712 whole entry): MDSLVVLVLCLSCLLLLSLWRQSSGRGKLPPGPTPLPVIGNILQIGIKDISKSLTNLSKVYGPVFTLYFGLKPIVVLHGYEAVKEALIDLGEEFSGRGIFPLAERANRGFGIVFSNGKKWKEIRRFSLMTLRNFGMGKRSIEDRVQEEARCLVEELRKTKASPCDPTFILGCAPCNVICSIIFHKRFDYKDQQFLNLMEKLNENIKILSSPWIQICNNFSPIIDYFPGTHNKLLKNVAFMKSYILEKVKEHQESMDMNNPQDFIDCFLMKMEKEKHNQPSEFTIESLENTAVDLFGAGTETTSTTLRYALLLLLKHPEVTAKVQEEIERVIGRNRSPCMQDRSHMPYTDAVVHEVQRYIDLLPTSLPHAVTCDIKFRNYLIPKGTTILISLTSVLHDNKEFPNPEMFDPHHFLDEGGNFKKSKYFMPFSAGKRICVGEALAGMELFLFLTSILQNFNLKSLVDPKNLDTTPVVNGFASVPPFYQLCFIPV

[28] = AUC(0 to 24 hrs) in mouse at 10 mg/kg, po; format: ADME, organism-based; parameters: time < 24 hr, route oral, dose 10 mg/kg; details: in vivo

In the case of `C[C@H](C(=O)Nc1ccc(Cl)cc1)[C@H]1CC[C@]2(CC1)COc1nc(C(F)(F)F)ccc12`, the microsomal CLint [1] is reported as 3.5 µL/min/mg, the microsomal CLint [2] is reported as 1.6 µL/min/mg and the IC50 [3] is reported as 7100 nM. The IC50 [4] was 5.4 nM.

In the case of `C[C@@H](C(=O)Nc1ccc(Cl)cc1)[C@H]1CC[C@]2(CC1)COc1cc(C(F)(F)F)ccc12`, the microsomal CLint [1] is reported as 4.5 µL/min/mg, the microsomal CLint [2] is reported as 3.7 µL/min/mg and the IC50 [3] is reported as 10500 nM. The IC50 [4] was 69 nM.

`CC(C)(C(=O)Nc1ccc(Cl)cc1)N1CCC2(CC1)COc1cc(C(F)(F)F)ccc12` showed a microsomal CLint [1] of 117 µL/min/mg, a microsomal CLint [2] of 34 µL/min/mg and an IC50 [3] of 47900 nM. For the same molecule, the IC50 [4] was 11 nM.

For `C[C@H](C(=O)Nc1ccc(Cl)cc1)[C@H]1CC[C@]2(CC1)COc1cc(C(F)(F)F)ccc12`, the inhibition [5] was “Active”, the inhibition [6] was “inactive” and the hepatocyte CLint [7] was 4 µL/min/1e6 cells. The half-life [8] was 2.92 h, the hepatocyte CLint [9] was 5.6 µL/min/1e6 cells and the half-life [10] was 2.08 h. For the same molecule, the hepatocyte CLint [11] was 1.7 µL/min/1e6 cells, the half-life [12] was 6.65 h and the half-life [13] was 49 h. It also gave a half-life [14] of 115 h, an AUC(0-t) at 72 h [15] of 18.2 µM·h and a Cmax [16] of 580 nM. For the same molecule, the AUC(0-t) at 72 h [17] was 105 µM·h, the Cmax [18] was 2880 nM and the inhibition at 10 µM [19] was 44%. The inhibition at 10 µM [20] was 67%, the IC50 [21] was 3100 nM and the fraction unbound [22] was 0.005. For the same molecule, the fraction unbound [23] was 0.001, the ΔTm [24] was 17.8 °C and the IC50 [25] was 7.8 nM. For the same molecule, the microsomal CLint [1] was less than 1 µL/min/mg, the microsomal CLint [2] was less than 1 µL/min/mg and the IC50 [26] was 52 nM. The IC50 [3] was 7300 nM and the IC50 [4] was 3.9 nM.

Molecule `O=C(CN1CCC2(CC1)COc1cc(C(F)(F)F)ccc12)Nc1ccc(Cl)cc1` has an IC50 [3] of 25700 nM and an IC50 [4] of 260 nM.

`CC(C(=O)Nc1ccc(Cl)cc1)N1CCC2(CCc3ccccc32)CC1` (racemic) showed a microsomal CLint [1] of 668 µL/min/mg, a microsomal CLint [2] of 326 µL/min/mg and an IC50 [3] of 39000 nM. For the same molecule, the IC50 [4] was 39 nM.

With `C[C@H](C(=O)Nc1ccc(Cl)cc1)[C@H]1CC[C@]2(CC1)COc1ncc(C(F)(F)F)cc12` the microsomal CLint [1] was 19 µL/min/mg, the microsomal CLint [2] was 3 µL/min/mg and the IC50 [3] was 18400 nM. For the same molecule, the IC50 [4] was 7.9 nM.

Molecule `CCC(C(=O)Nc1ccc(Cl)cc1)N1CCC2(CCOc3cc(C(F)(F)F)ccc32)CC1` (stereo not drawn) has a microsomal CLint [1] of 39 µL/min/mg, a microsomal CLint [2] of 22 µL/min/mg and an IC50 [26] of 360 nM. It also gave an IC50 [3] of 11800 nM and an IC50 [4] of 12 nM.

Work on `C[C@@H](C(=O)Nc1ccc(Cl)cc1)[C@H]1CC[C@@]2(CC1)COc1cc(C(F)(F)F)ccc12` yielded a microsomal CLint [1] of 92 µL/min/mg, a microsomal CLint [2] of 43 µL/min/mg and an IC50 [3] of 10300 nM. For the same molecule, the IC50 [4] was 6.6 nM.

`O=C(Nc1ccc(Cl)cc1)C(CC1CC1)N1CCC2(CC1)COc1cc(C(F)(F)F)ccc12` (stereo not drawn) showed a microsomal CLint [1] of 14 µL/min/mg, a microsomal CLint [2] of 13 µL/min/mg and an IC50 [26] of 300 nM. For the same molecule, the IC50 [3] was 15900 nM and the IC50 [4] was 4.4 nM.

For `O=C(Nc1ccc(Cl)cc1)C(=O)N1CCC(c2ccnc3ccc(F)cc23)CC1`, the IC50 [26] was 1600 nM and the IC50 [4] was 15 nM.

In the case of `C[C@H](C(=O)Nc1ccc(Cl)cc1)[C@H]1CC[C@@]2(CC1)COc1cc(C(F)(F)F)ccc12`, the microsomal CLint [1] is reported as 193 µL/min/mg, the microsomal CLint [2] is reported as 67 µL/min/mg and the IC50 [26] is reported as 51 nM. It also gave an IC50 [3] of 7800 nM and an IC50 [4] of 5.1 nM.

`CC[C@H](C(=O)Nc1ccc(Cl)cc1)N1CCC2(CC1)COc1cc(C(F)(F)F)ccc12` (stereo in doubt) gave a microsomal CLint [1] of 48 µL/min/mg, a microsomal CLint [2] of 17 µL/min/mg and an IC50 [3] of 15500 nM. The IC50 [4] was 109 nM.

`CC[C@H](C(=O)Nc1ccc(Cl)cn1)[C@H]1CC[C@]2(CC1)COc1cc(C(F)(F)F)ccc12` gave a microsomal CLint [1] of 30 µL/min/mg, a microsomal CLint [2] of 5.9 µL/min/mg and an IC50 [26] of 320 nM. For the same molecule, the IC50 [3] was 26400 nM and the IC50 [4] was 7 nM.

In the case of `O=C(Nc1ccc(Cl)cc1)C(CCO)N1CCC2(CC1)COc1cc(C(F)(F)F)ccc12` (stereo not drawn), the IC50 [3] is reported as 9500 nM and the IC50 [4] is reported as 86 nM.

Molecule `CC[C@@H](C(=O)Nc1ccc(Cl)cc1)N1CCC2(CC1)COc1cc(C(F)(F)F)ccc12` (stereo in doubt) has an inhibition at 10 µM [20] of 85%, an IC50 [27] of 5000 nM and a ΔTm [24] of 15.2 °C. The IC50 [25] was 38 nM, the microsomal CLint [1] was 53 µL/min/mg and the microsomal CLint [2] was 22 µL/min/mg. The IC50 [26] was 360 nM, the IC50 [3] was 11400 nM and the IC50 [4] was 12 nM.

Work on `O=C(CN1CCC2(CCc3ccccc32)CC1)Nc1ccc(Cl)cc1` yielded an IC50 [3] of 42800 nM and an IC50 [4] of 670 nM.

With `CC(C(=O)Nc1ccc(Cl)cc1)C1CCC2(CC1)c1ccc(C(F)(F)F)cc1CN2C` (stereo not drawn) the microsomal CLint [1] was 9.5 µL/min/mg, the microsomal CLint [2] was 1.4 µL/min/mg and the IC50 [3] was 7100 nM. For the same molecule, the IC50 [4] was 8.3 nM.

For `CC(C(=O)Nc1ccc(Cl)cc1)N1CCC2(CC1)COc1cc(C(F)(F)F)ccc12` (racemic), the microsomal CLint [1] was 56 µL/min/mg, the microsomal CLint [2] was 11 µL/min/mg and the IC50 [26] was 1320 nM. The IC50 [3] was 35600 nM and the IC50 [4] was 22 nM.

For `C[C@@H](C(=O)Nc1ccc(Cl)cc1)[C@H]1CC[C@@H](c2ccnc3ccc(F)cc32)CC1`, the inhibition [5] was “Active”, the hepatocyte CLint [7] was 4.5 µL/min/1e6 cells and the half-life [8] was 2.55 h. It also gave a half-life [14] of 2.5 h, an AUC(0-t) at 24 h [28] of 9.3 µM·h and a Cmax [18] of 2000 nM.

For `O=C(Nc1ccc(Cl)cc1)C(=O)N1CCC2(CC1)COc1cc(C(F)(F)F)ccc12`, the IC50 [26] was 1700 nM and the IC50 [4] was 32 nM.

From ChEMBL document CHEMBL4673358 (Bioorg Med Chem Lett, 2021)
